Laboratory results published in patent US20140113342A1, “Production of 1,2-Propanediol in Cyanobacteria” (Algenol Biofuels Inc., priority 2012, published 2014).

Experiments:
[1] = tested on: Synechococcus sp. PCC 7002; experiment: Tolerance testing to 1,2-propanediol added to culture medium; type: cell-based; settings: one week
Text: (§1) The tolerance of cyanobacterial strains PCC 6803 and PCC 7002 to the presence of accumulated 1,2-propanediol in the culture medium was examined by adding a one time bolus of varying amounts of 1,2-propanediol (1%, 2%, 3% and 5%) to exponential phase cultures and comparing the growth of these cultures to a wild type culture with no addition. Growth was monitored by optical density (OD750) for one week. […] PCC 7002.

[2] = tested on: Synechocystis sp. PCC 6803; experiment: as above; type: cell-based; settings: one week
Text: as §1

[3] = 1%, 2%, 3% and 5% 1,2-propanediol
[4] = up to 3% 1,2-propanediol, one time bolus to exponential phase culture

CC(O)CO (centres unmarked) [1,2-propanediol]
lethal effect (complete bleaching) [1, 3]: No lethal effect | growth of cultures (OD750) compared to wild type culture with no addition [1, 4]: no difference in the growth | lethal effect (complete bleaching) [2, 3]: No lethal effect | growth of cultures (OD750) compared to wild type culture with no addition ([2]; 5% 1,2-propanediol, one time bolus): less growth, discoloration and clumping | growth of cultures (OD750) compared to wild type culture with no addition [2, 4]: no difference in the growth
